IC50 data for two compounds are collected here from patent publication US8633318B2, “Compounds for treatment or prevention of inflammation, an inflammatory disease, or an immune or an autoimmune disorder” (Proximagen Ltd, priority 2008, dated 2014).

The assay addresses T1, human SSAO (Homo sapiens, UniProt Q16853).
T1 construct: made in house
T1 sequence (Q16853 29-763 limits assumed): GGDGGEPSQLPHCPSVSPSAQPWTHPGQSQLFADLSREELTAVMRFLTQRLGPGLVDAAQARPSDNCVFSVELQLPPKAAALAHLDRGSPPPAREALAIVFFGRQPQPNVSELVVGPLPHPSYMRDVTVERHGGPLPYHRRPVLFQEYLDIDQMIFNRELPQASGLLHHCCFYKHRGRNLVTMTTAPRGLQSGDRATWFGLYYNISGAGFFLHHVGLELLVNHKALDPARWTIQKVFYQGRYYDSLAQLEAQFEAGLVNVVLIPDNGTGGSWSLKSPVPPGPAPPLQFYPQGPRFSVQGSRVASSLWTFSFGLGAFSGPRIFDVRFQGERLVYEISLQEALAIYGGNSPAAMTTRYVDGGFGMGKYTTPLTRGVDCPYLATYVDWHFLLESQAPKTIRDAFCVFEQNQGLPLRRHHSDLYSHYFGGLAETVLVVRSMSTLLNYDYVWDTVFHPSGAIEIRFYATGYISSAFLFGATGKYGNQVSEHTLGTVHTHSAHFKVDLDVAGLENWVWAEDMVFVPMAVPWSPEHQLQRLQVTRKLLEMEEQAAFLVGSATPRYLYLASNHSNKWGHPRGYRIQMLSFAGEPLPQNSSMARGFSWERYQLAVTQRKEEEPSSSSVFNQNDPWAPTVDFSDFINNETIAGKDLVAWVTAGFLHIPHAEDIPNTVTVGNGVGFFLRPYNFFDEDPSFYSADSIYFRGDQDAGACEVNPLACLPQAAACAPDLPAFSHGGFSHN
The experiment in a line: SSAO enzyme inhibition assay (Amplex Red/HRP coupled, benzylamine substrate). The class given is biochemical. To be noted: purified recombinantly expressed human SSAO; benzylamine 100 μM; about 60 minutes pre-incubation; room temperature. On the procedure: Biological Assay of the SSAO Enzyme Inhibitors
All assays were performed in room temperature with purified recombinantly expressed human SSAO. Enzyme was prepared essentially as described in Öhman et al. (Protein Expression and Purification 2006, 46, 321-331). The enzyme activity was measured with benzylamine as substrate and utilized the production of hydrogen peroxide for detection. In a horseradish peroxidise (HRP) coupled reaction, hydrogen peroxide oxidation of 10-acetyl-3,7-dihydroxyphenoxazine produced resorufin, which is a highly fluorescent compound (Zhout and Panchuk-Voloshina. Analytical Biochemistry 1997, 253, 169-174; Amplex® Red Hydrogen Peroxide/peroxidise Assay kit, Invitrogen A22188).
Briefly, test compounds were dissolved in dimethyl sulfoxide (DMSO) to a concentration of 10 mM. Dose-response measurements were assayed by either creating 1:10 serial dilutions in DMSO to produce a 7 point curve or by making 1:3 serial dilutions in DMSO to produce 11 point curves. […] Fluorescence intensity was then measured at several time points (15 minutes, 20 minutes and 30 minutes) exciting at 544 nm and reading the emission at 590 nm). […] The inhibition was measured as % decrease of the signal compared to a control without inhibitor (only diluted DMSO). […] Data was fitted to a four parameter logistic model and IC50 values were calculated using the GraphPad Prism 4 or XLfit 4 programs.

SMILES strings stand for the structures.

`Cc1ccc(-c2nn(C3CCOCC3)c3ccncc23)cc1` [Example 3, 3-(4-Methylphenyl)-1-(tetrahydro-2H-pyran-4-yl)-1H-pyrazolo[4,3-c]pyridine]: the IC50 was found to be 89 nM.
With `Clc1ccc(-c2nn(C3CCNCC3)c3ccncc23)cc1` [Example 5, 3-(4-Chlorophenyl)-1-piperidin-4-yl-1H-pyrazolo[4,3-c]pyridine], the half-inhibitory concentration (IC50) came to 120 nM.

What is called IC50 is the concentration at which inhibition is half-maximal.
